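Protocol summary: plate cells (96-well), add compound at 5 concentrations, incubate 48 h, interpolate endpoints linearly. TGI: total growth inhibition.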

Results on eleven compounds are retold here after PubChem BioAssay (NCI).

Test systems include DLD-1 colon; DMS 114 small cell lung; DMS 273 small cell lung; KM20L2 colon; LXFL 529 NSCLC; M19-MEL melanoma; SNB-78 CNS; XF 498 CNS; HOP-18 NSCLC; RXF-631 renal.
Experiment in all cases: NCI tumour cell line growth inhibition, 48 h

In the case of `CCOC1C(Br)Cn2c(=O)c3cc4ccccc4cc3c(=O)n2C1C` (stereo not given), the TGI with DLD-1 colon, in the test on DMS 114 small cell lung, in the test on DMS 273 small cell lung, with KM20L2 colon, in the test with LXFL 529 NSCLC and in the test with M19-MEL melanoma was over 100 µM in each case. In addition, the TGI with SNB-78 CNS and in the test with XF 498 CNS was over 100 µM throughout.

Take `CC1(C)OCN(c2ccc(N3CCOCC3)cc2)Cn2c1nc1ccccc12`: the TGI in the test with DLD-1 colon, with DMS 114 small cell lung, in the test with DMS 273 small cell lung, in the test on HOP-18 NSCLC, in the test with KM20L2 colon and in the test on LXFL 529 NSCLC was over 100 µM throughout. For the same compound, the TGI in the test on M19-MEL melanoma and with SNB-78 CNS was over 100 µM in each case.

With `O=C1COc2cc(NC(=S)Nc3ccccc3)ccc2N1`, the TGI in the test on DLD-1 colon, with DMS 114 small cell lung, in the test on DMS 273 small cell lung, with HOP-18 NSCLC, with KM20L2 colon and in the test on LXFL 529 NSCLC was over 100 µM each time. Besides, the TGI in the test with M19-MEL melanoma, in the test with RXF-631 renal, in the test on SNB-78 CNS and with XF 498 CNS was over 100 µM each time.

Turning to `CC1(c2cccc(C3CC4(CCC3=O)OCCCCO4)c2)OCCO1` (stereo not given), the TGI with DLD-1 colon, in the test on DMS 114 small cell lung, in the test with DMS 273 small cell lung, in the test on HOP-18 NSCLC, in the test with KM20L2 colon and in the test on LXFL 529 NSCLC was over 100 µM each time. In addition, the TGI in the test on M19-MEL melanoma and in the test with SNB-78 CNS was over 100 µM in each case.

As for `CS(=O)(=O)C(C#N)c1nc2ccccc2nc1Cl` (stereo not given), the TGI with DLD-1 colon, in the test with DMS 114 small cell lung, in the test on DMS 273 small cell lung, in the test with LXFL 529 NSCLC, with M19-MEL melanoma and in the test with SNB-78 CNS was over 100 µM in each case. The TGI in the test with XF 498 CNS is over 100 µM.

Consider `CCC(CC)NC1=C(NC(C)=O)C(=O)c2ccccc2C1=O`, for which the TGI with DLD-1 colon, in the test on DMS 273 small cell lung, in the test with KM20L2 colon, with LXFL 529 NSCLC, with M19-MEL melanoma and in the test on SNB-78 CNS was over 50 µM throughout. Besides, the TGI with XF 498 CNS was over 50 µM.

For the compound `COc1ccc2nc3cc(Cl)ccc3c(Sc3ccc([N+](=O)[O-])cc3C)c2c1`, the TGI with DLD-1 colon, with DMS 114 small cell lung, in the test on DMS 273 small cell lung, with HOP-18 NSCLC, in the test with KM20L2 colon and in the test on LXFL 529 NSCLC was over 100 µM throughout. In addition, the TGI with M19-MEL melanoma, with SNB-78 CNS and with XF 498 CNS was over 100 µM throughout.

With `COc1cc(C=O)c(-c2c(C=O)ccc3c2OCO3)c(OC)c1OC`, the TGI with DLD-1 colon, with DMS 114 small cell lung, in the test with DMS 273 small cell lung, in the test on HOP-18 NSCLC, with KM20L2 colon and in the test with LXFL 529 NSCLC was over 100 µM throughout. The TGI in the test on M19-MEL melanoma, with RXF-631 renal and in the test on SNB-78 CNS was over 100 µM each time.

Turning to `OCC12C=CC(C1)c1ccccc12` (stereo not given), the TGI in the test on DLD-1 colon, in the test with DMS 114 small cell lung, in the test with DMS 273 small cell lung, in the test on HOP-18 NSCLC, in the test with KM20L2 colon and with LXFL 529 NSCLC was over 100 µM in each case. The TGI in the test with M19-MEL melanoma and with RXF-631 renal was over 100 µM in each case.

Consider `CCN1C[C@]2(C)CC[C@H](O)C34C1C(C[C@@H]32)[C@@]1(O)CC[C@H]2C[C@@H]4[C@@H]1[C@H]2O`, for which the TGI in the test on DLD-1 colon, with DMS 114 small cell lung, with DMS 273 small cell lung, in the test with HOP-18 NSCLC, in the test with KM20L2 colon and in the test with LXFL 529 NSCLC was over 100 µM throughout. Further, the TGI with M19-MEL melanoma and in the test on SNB-78 CNS was over 100 µM in each case.

Regarding `O=S(Cc1ccccc1)c1nc2ccccc2nc1-c1cccs1` (stereo not given), the TGI with DLD-1 colon is 24.6 µM; in the test on DMS 114 small cell lung it was 5.91 µM; in the test on DMS 273 small cell lung, 22.7 µM; with HOP-18 NSCLC, 29.5 µM; in the test on LXFL 529 NSCLC, 12.8 µM; in the test on M19-MEL melanoma, 22.6 µM. Also, the values for the TGI in the test with SNB-78 CNS and with XF 498 CNS were 56.2 µM and 12.3 µM, respectively.
